The IC50 is the concentration at which inhibition is half-maximal.

SMILES strings stand for the structures. Like-named read-outs stand apart in the source and are kept apart here.

From US8076338B2, “Kinase modulators and methods of use” (Exelixis, Inc., priority 2004, dated 2011) come the findings set out here.

One experiment addresses p70S6K (Homo sapiens, UniProt P23443). Description: Luciferase-coupled chemiluminescence kinase assay (ATP consumption). In kind it is biochemical. Put shortly:
(§1)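 Enzyme at 2.5-5 nM was preincubated 30 min at room temperature with compound in Tris pH 7.5, MgCl2, TX-100, DTT, then reacted with ATP for 3 h at ambient temperature. Remaining ATP was quantified by luciferase-luciferin chemiluminescence, with consumption kept at 25-60%; […].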

The next experiment deals with AktK (Homo sapiens, UniProt P31749). Described as above. In kind it is biochemical. The note with it: read-out: AKT-1 IC50. Put shortly:
as §1

p70S6K, sequence (P23443 whole entry): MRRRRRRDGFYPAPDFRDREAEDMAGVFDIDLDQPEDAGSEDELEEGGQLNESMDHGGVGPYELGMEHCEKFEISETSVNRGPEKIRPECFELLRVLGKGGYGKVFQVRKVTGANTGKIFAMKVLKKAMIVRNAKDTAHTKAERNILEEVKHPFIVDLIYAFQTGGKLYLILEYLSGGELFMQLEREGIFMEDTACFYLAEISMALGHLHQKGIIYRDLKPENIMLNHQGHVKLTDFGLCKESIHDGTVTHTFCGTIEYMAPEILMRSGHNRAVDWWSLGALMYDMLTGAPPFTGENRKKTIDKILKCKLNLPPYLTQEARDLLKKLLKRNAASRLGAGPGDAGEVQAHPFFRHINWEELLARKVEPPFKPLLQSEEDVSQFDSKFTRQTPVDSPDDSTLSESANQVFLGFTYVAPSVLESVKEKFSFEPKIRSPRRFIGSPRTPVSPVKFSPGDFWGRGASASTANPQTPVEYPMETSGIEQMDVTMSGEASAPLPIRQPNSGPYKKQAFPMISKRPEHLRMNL
AktK, sequence (P31749 whole entry): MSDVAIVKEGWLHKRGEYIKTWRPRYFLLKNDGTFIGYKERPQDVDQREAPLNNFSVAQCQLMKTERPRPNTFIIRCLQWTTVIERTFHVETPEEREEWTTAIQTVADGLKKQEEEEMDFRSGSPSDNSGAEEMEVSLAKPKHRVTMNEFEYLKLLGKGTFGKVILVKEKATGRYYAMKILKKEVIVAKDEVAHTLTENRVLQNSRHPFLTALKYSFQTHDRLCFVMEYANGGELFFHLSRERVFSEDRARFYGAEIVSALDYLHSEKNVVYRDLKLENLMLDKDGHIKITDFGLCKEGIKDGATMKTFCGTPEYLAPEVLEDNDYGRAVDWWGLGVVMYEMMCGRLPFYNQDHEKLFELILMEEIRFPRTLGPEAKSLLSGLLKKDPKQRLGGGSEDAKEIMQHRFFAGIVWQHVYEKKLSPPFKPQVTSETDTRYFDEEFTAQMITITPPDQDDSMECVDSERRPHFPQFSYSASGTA

Take `Cc1cc(F)c(-c2ccc(F)c(F)c2)cc1N1CCN(c2ncnc3[nH]nc(Br)c23)CC1` [Entry 266, 3-bromo-4-[4-(3′,4′,6-trifluoro-4-methylbiphenyl-3-yl)piperazin-1-yl]-1H-pyrazolo[3,4-d]pyrimidine]: the IC50 against p70S6K (Table 1, class symbols per key) was less than 100 nM; on AktK (Table 1, class symbols per key), 100 to 1000 nM.

Take `Clc1cc(NCCN2CCCC2)cc(N2CCN(c3ncnc4[nH]nc(Br)c34)CC2)c1` [Entry 267, 3-[4-(3-bromo-1H-pyrazolo[3,4-d]pyrimidin-4-yl)piperazin-1-yl]-5-chloro-N-(2-pyrrolidin-1-ylethyl)aniline]: the IC50 against p70S6K (Table 1, class symbols per key) is less than 100 nM; at AktK (Table 1, class symbols per key), less than 100 nM.

With `Cc1c(NCCN2CCCC2)cc(CO)cc1N1CCN(c2ncnc3[nH]nc(Br)c23)CC1` [Entry 268, {3-[4-(3-bromo-1H-pyrazolo[3,4-d]pyrimidin-4-yl)piperazin-1-yl]-4-methyl-5-[(2-pyrrolidin-1-ylethyl)amino]phenyl}methanol], the IC50 at p70S6K (Table 1, class symbols per key) is less than 100 nM; on AktK (Table 1, class symbols per key), 100 to 1000 nM.

As to `Cc1c(NCCN2CCCC2)cc(OCC2CC2(F)F)cc1N1CCN(c2ncnc3[nH]nc(Br)c23)CC1` (stereo not shown) [Entry 270, 3-[4-(3-bromo-1H-pyrazolo[3,4-d]pyrimidin-4-yl)piperazin-1-yl]-5-{[(2,2-difluorocyclopro-pyl)methyl]oxy}-2-methyl-N-(2-pyrrolidin-1-ylethyl)aniline], the IC50 against p70S6K (Table 1, class symbols per key) was less than 100 nM; on AktK (Table 1, class symbols per key), less than 100 nM.

For `Cc1c(NCCN2CCCC2)cc(Br)cc1N1CCN(c2ncnc3[nH]nc(Br)c23)CC1` [Entry 271, 5-bromo-3-[4-(3-bromo-1H-pyrazolo[3,4-d]pyrimidin-4-yl)piperazin-1-yl]-2-methyl-N-(2-pyrrolidin-1-ylethyl)aniline], the IC50 against p70S6K (Table 1, class symbols per key) was less than 100 nM; on AktK (Table 1, class symbols per key), less than 100 nM.

With `CCOCc1cc(NCCN2CCCC2)c(C)c(N2CCN(c3ncnc4[nH]nc(Br)c34)CC2)c1` [Entry 272, 3-[4-(3-bromo-1H-pyrazolo[3,4-d]pyrimidin-4-yl)piperazin-1-yl]-5-[(ethyloxy)methyl]-2-methyl-N-(2-pyrrolidin-1-ylethyl)aniline], the IC50 against p70S6K (Table 1, class symbols per key) was less than 100 nM; on AktK (Table 1, class symbols per key) it was less than 100 nM.

Take `Cn1c(CCCO)nc2c(N3CCN(c4ncnc5[nH]nc(Br)c45)CC3)cc(C(F)(F)F)cc21` [Entry 273, 3-[4-[4-(3-bromo-1H-pyrazolo[3,4-d]pyrimidin-4-yl)piperazin-1-yl]-1-methyl-6-(trifluoromethyl)-1H-benzimidazol-2-yl]propan-1-ol]: the IC50 is less than 100 nM against p70S6K (Table 1, class symbols per key) and 100 to 1000 nM on AktK (Table 1, class symbols per key).

Consider `Cc1c(NCCN2CCCC2)cc(C(=O)CCC(F)(F)F)cc1N1CCN(c2ncnc3[nH]nc(Br)c23)CC1` [Entry 274, 1-{3-[4-(3-bromo-1H-pyrazolo[3,4-d]pyrimidin-4-yl)piperazin-1-yl]-4-methyl-5-[(2-pyrrolidin-1-ylethyl)amino]phenyl}-4,4,4-trifluorobutan-1-one], for which the IC50 against p70S6K (Table 1, class symbols per key) is less than 100 nM; at AktK (Table 1, class symbols per key) it was less than 100 nM.

For the compound `Cc1c(NCCN2CCCC2)cc(C(=O)C2CC2)cc1N1CCN(c2ncnc3[nH]nc(Br)c23)CC1` [Entry 275, {3-[4-(3-bromo-1H-pyrazolo[3,4-d]pyrimidin-4-yl)piperazin-1-yl]-4-methyl-5-[(2-pyrrolidin-1-ylethyl)amino]phenyl}(cyclopropyl)methanone], the IC50 against p70S6K (Table 1, class symbols per key) was less than 100 nM; at AktK (Table 1, class symbols per key), less than 100 nM.

With `Cc1ccc(-c2ccccc2OCCCN(C)C)cc1N1CCN(c2ncnc3[nH]nc(Br)c23)CC1` [Entry 276, 3-({3′-[4-(3-bromo-1H-pyrazolo[3,4-d]pyrimidin-4-yl)piperazin-1-yl]-4′-methylbiphenyl-2-yl}oxy)-N,N-dimethylpropan-1-amine], the IC50 on p70S6K (Table 1, class symbols per key) is less than 100 nM; at AktK (Table 1, class symbols per key) it was less than 100 nM.

Consider `CCCC(F)(F)c1cc(NCCN2CCCC2)c(C)c(N2CCN(c3ncnc4[nH]nc(Br)c34)CC2)c1` [Entry 277, 3-[4-(3-bromo-1H-pyrazolo[3,4-d]pyrimidin-4-yl)piperazin-1-yl]-5-(1,1-difluorobutyl)-2-methyl-N-(2-pyrrolidin-1-ylethyl)aniline], for which the IC50 against p70S6K (Table 1, class symbols per key) was less than 100 nM; at AktK (Table 1, class symbols per key), less than 100 nM.

As for `Cc1ccc(-c2ccccc2OCCCN2CCOCC2)cc1N1CCN(c2ncnc3[nH]nc(Br)c23)CC1` [Entry 278, 3-bromo-4-(4-{4-methyl-2′-[(3-morpholin-4-ylpropyl)oxy]biphenyl-3-yl}piperazin-1-yl)-1H-pyrazolo[3,4-d]pyrimidine], the IC50 on p70S6K (Table 1, class symbols per key) was less than 100 nM; on AktK (Table 1, class symbols per key), less than 100 nM.

With `Cc1ccc(-c2ccccc2OCCN2CCOCC2)cc1N1CCN(c2ncnc3[nH]nc(Br)c23)CC1` [Entry 279, 3-bromo-4-(4-{4-methyl-2′-[(2-morpholin-4-ylethyl)oxy]biphenyl-3-yl}piperazin-1-yl)-1H-pyrazolo[3,4-d]pyrimidine], the IC50 at p70S6K (Table 1, class symbols per key) is less than 100 nM; at AktK (Table 1, class symbols per key) it was less than 100 nM.

`Cc1c(NCCN2CCCC2)cc(COCC(F)(F)F)cc1N1CCN(c2ncnc3[nH]nc(Br)c23)CC1` [Entry 280, 3-[4-(3-bromo-1H-pyrazolo[3,4-d]pyrimidin-4-yl)piperazin-1-yl]-2-methyl-N-(2-pyrrolidin-1-yl-ethyl)-5-{[(2,2,2-trifluoroethyl)oxy]methyl}aniline]: the IC50 on p70S6K (Table 1, class symbols per key) is less than 100 nM; on AktK (Table 1, class symbols per key) it was less than 100 nM.

For `Cc1ccc(-c2ccccc2OCCN2C(=O)CCC2=O)cc1N1CCN(c2ncnc3[nH]nc(Br)c23)CC1` [Entry 281, 1-[2-({3′-[4-(3-bromo-1H-pyrazolo[3,4-d]pyrimidin-4-yl)piperazin-1-yl]-4′-methylbiphenyl-2-yl}oxy)ethyl]pyrrolidine-2,5-dione], the IC50 on p70S6K (Table 1, class symbols per key) is less than 100 nM; at AktK (Table 1, class symbols per key), less than 100 nM.

In the case of `Cc1ccc(-c2cccc(F)c2OCCN2CCCC2)cc1N1CCN(c2ncnc3[nH]nc(Br)c23)CC1` [Entry 282, 3-bromo-4-(4-{3′-fluoro-4-methyl-2′-[(2-pyrrolidin-1-ylethyl)oxy]biphenyl-3-yl}piperazin-1-yl)-1H-pyrazolo[3,4-d]pyrimidine], the IC50 at p70S6K (Table 1, class symbols per key) was less than 100 nM; at AktK (Table 1, class symbols per key), less than 100 nM.

In the case of `CCCC(=O)c1cc(NCCN2CCCC2)cc(N2CCN(c3ncnc4[nH]nc(Br)c34)CC2)c1` [Entry 283, 1-{3-[4-(3-bromo-1H-pyrazolo[3,4-d]pyrimidin-4-yl)piperazin-1-yl]-5-[(2-pyrrolidin-1-ylethyl)amino]phenyl}butan-1-one], the IC50 is less than 100 nM at p70S6K (Table 1, class symbols per key) and less than 100 nM at AktK (Table 1, class symbols per key).

For `Cc1c(NCCN2CCCC2)cc(OCCC(F)(F)F)cc1N1CCN(c2ncnc3[nH]nc(Br)c23)CC1` [Entry 284, 3-[4-(3-bromo-1H-pyrazolo[3,4-d]pyrimidin-4-yl)piperazin-1-yl]-2-methyl-N-(2-pyrrolidin-1-ylethyl)-5-[(3,3,3-trifluoropropyl)oxy]aniline], the IC50 is less than 100 nM at p70S6K (Table 1, class symbols per key) and less than 100 nM on AktK (Table 1, class symbols per key).

Turning to `Cc1c(NCCN2CCCC2)cc(OCC(F)(F)F)cc1N1CCN(c2ncnc3[nH]nc(Br)c23)CC1` [Entry 285, 3-[4-(3-bromo-1H-pyrazolo[3,4-d]pyrimidin-4-yl)piperazin-1-yl]-2-methyl-N-(2-pyrrolidin-1-ylethyl)-5-[(2,2,2-trifluoroethyl)oxy]aniline], the IC50 was less than 100 nM on p70S6K (Table 1, class symbols per key) and less than 100 nM on AktK (Table 1, class symbols per key).

As to `CCCC(O)c1cc(NCCN2CCCC2)c(C)c(N2CCN(c3ncnc4[nH]nc(Br)c34)CC2)c1` (stereo not shown) [Entry 286, 1-{3-[4-(3-bromo-1H-pyrazolo[3,4-d]pyrimidin-4-yl)piperazin-1-yl]-4-methyl-5-[(2-pyrrolidin-1-ylethyl)amino]phenyl}butan-1-ol], the IC50 on p70S6K (Table 1, class symbols per key) was less than 100 nM; at AktK (Table 1, class symbols per key), less than 100 nM.

Turning to `Clc1ccc(-c2ccccc2OCCN2CCCC2)cc1N1CCN(c2ncnc3[nH]nc(Br)c23)CC1` [Entry 287, 3-bromo-4-(4-{4-chloro-2′-[(2-pyrrolidin-1-ylethyl)oxy]biphenyl-3-yl}piperazin-1-yl)-1H-pyrazolo[3,4-d]pyrimidine], the IC50 against p70S6K (Table 1, class symbols per key) was less than 100 nM; at AktK (Table 1, class symbols per key), less than 100 nM.

Consider `Cc1c(NCCN2CCCC2)cc(OCC(F)(CF)CF)cc1N1CCN(c2ncnc3[nH]nc(C#CCO)c23)CC1` [Entry 288, 3-[4-(4-{5-{[2,3-difluoro-2-(fluoromethyl)pro-pyl]oxy}-2-methyl-3-[(2-pyrrolidin-1-ylethyl)a-mino]phenyl}piperazin-1-yl)-1H-pyrazolo[3,4-d]pyrimidin-3-yl]prop-2-yn-1-ol], for which the IC50 on p70S6K (Table 1, class symbols per key) was less than 100 nM; at AktK (Table 1, class symbols per key), less than 100 nM.

For the compound `Fc1ccc(-c2ccc(Cl)c(N3CCN(c4ncnc5[nH]nc(Br)c45)CC3)c2)c(OCCN2CCCC2)c1` [Entry 289, 3-bromo-4-(4-{4-chloro-4′-fluoro-2′-[(2-pyrrolidin-1-ylethyl)oxy]biphenyl-3-yl}piperazin-1-yl)-1H-pyrazolo[3,4-d]pyrimidine], the IC50 at p70S6K and on AktK was less than 100 nM each time.

Consider `Cc1c(NCCN2CCCC2)cc(OCC(F)(CF)CF)cc1N1CCN(c2ncnc3[nH]nc(/C=C/C(=O)O)c23)CC1` [Entry 291, (2E)-3-[4-(4-{5-{[2,3-difluoro-2-(fluoromethyl)pro-pyl]oxy}-2-methyl-3-[(2-pyrrolidin-1-ylethyl)a-mino]phenyl}piperazin-1-yl)-1H-pyrazolo[3,4-d]pyrimidin-3-yl]prop-2-enoic acid], for which the IC50 against p70S6K and on AktK was less than 100 nM throughout.

On to `COC(CCC(F)(F)F)(OC)c1cc(NCCN2CCCC2)c(C)c(N2CCN(c3ncnc4[nH]nc(Br)c34)CC2)c1` [Entry 292, 3-[4-(3-bromo-1H-pyrazolo[3,4-d]pyrimidin-4-yl)piperazin-1-yl]-2-methyl-N-(2-pyrrolidin-1-ylethyl)-5-[4,4,4-trifluoro-1,1-bis(methyloxy)butyl]aniline], for which the IC50 against p70S6K and at AktK was less than 100 nM throughout.

`c1ccc(N2CCN(c3ncnc4[nH]cnc34)CC2)cc1` [Entry 293, 6-(4-phenylpiperazin-1-yl)-9H-purine]: the IC50 at p70S6K is 1000 to 10000 nM; on AktK, not below 10000 nM.
